Measurements published in US4839343A, “Preparation containing hexatriacontapeptides and methods of use” (Debiopharm, S.A., priority 1987, dated 1989).

Legend:
[1] = test system: patient seriously affected by bacteremic (endotoxic) shock; experiment: Treatment of patient with bacteremic (endotoxic) shock by intravenous peptide infusion; assay type: in vivo, human
Procedure: A patient seriously affected by bacteremic (endotoxic) shock was admitted in an intensive care unit and treated with dopamine given intravenously at doses of 10 and 20 mcg/kg/min.
A solution of NPY was then given by intravenous infusion at increasing doses of 0.01 to 50 pmol/kg/min over a period of 10 hours.

[2] = test system: Conscious normotensive rats; experiment: Pressor response to norepinephrine in conscious normotensive rats infused with endotoxin and/or NPY; assay type: in vivo, rat
Procedure: Conscious normotensive rats were divided into six groups. Rats of Group II and IV were infused intravenously with NPY (0.1 mcg/min for 75 min). A further two groups of rats (I and III) received the vehicle of the peptide ([…]) for the same period. Escherichia Coli endotoxin (lipopolysaccharide E. Coli 0.111: B4, Difco Laboratories, Detroit, MI), 10 mcg/10 mcl/min was infused starting 15 min after the beginning of the NPY-infusion (Group IV) or its vehicle (Group III). The remaining rats (Groups I and […]) were given the vehicle of endotoxin, 10 mcl/min i.v. In all these rats, a dose-response curve to intravenous injections of norepinephrine was obtained 5 min after ending the administration of NPY. The infusion of endotoxin or its vehicle was continued throughout this period. In two additional groups rats infused for 45 min with endotoxin or its vehicle, a 2 ml blood sample was obtained via the arterial catheter for determination of plasma NPY levels.
The endotoxin was dissolved in 0.9% NaCl to achieve a concentration of […]. NPY was diluted with 0.1M HCl to a concentration of 10 mg/l. Aliquots containing 15 mcg were stored frozen at -70° C. and thawed immediately before use. The different solutions were infused using a syringe pump (Model 455, Sage Instrument, White Plains, NY). Norepinephrine (Arterenol, Hoechst, Frankfurt-am-Main, FRG) was diluted in 0.9% NaCl to attain a concentration of 20 ng/20 mcl. Using a 250 mcl glass syringe (Hamilton), the dose of norepinephrine was increased by altering the volume injected.

[3] = test system: Normotensive male Wistar rats; experiment: Endotoxin-induced blood pressure fall in adrenal-demedullated conscious rats, i.v. NPY infusion; assay type: in vivo, rat
Procedure: Normotensive male Wistar rats were subjected to adrenal demedullation on the right side and either adrenolectomized or sham-operated on the left side. Ten days later a solution of NPY in non-alkaline saline was given as an intravenous infusion (70 ng/min) to these conscious semi-restrained animals. A group of control animals received only the saline diluent. During the last 75 minutes of the experiment, endotoxin (LPs E. Coli 0111: B4, 10 mcg/min i.v.) was administered both in NPY-treated and control animals.

Row | Compound | arterial pressure of the patient under dopamine alone ([1]; dopamine i.v. 10 and 20 mcg/kg/min, before NPY) | pressor effects of norepinephrine after NPY infused alone (Group II) versus control (Group I) ([2]; NPY 0.1 mcg/min i.v. 75 min, norepinephrine 20, 40, 80, 160 ng, p<0.001, <0.01, <0.001, <0.05) | blood pressure response to norepinephrine in endotoxin plus NPY rats (Group IV) versus control rats (Group I) ([2]; NPY 0.1 mcg/min i.v. 75 min plus endotoxin, all norepinephrine doses tested) | blood pressure response to norepinephrine in endotoxin-treated rats (Group IV) versus endotoxin alone (Group III) ([2]; NPY 0.1 mcg/min i.v. 75 min plus endotoxin, norepinephrine 20, 40, 80, 160 ng i.v., p<0.05, <0.01, <0.01, <0.05) | effect on blood pressure or heart rate before norepinephrine injections ([2]; NPY 0.1 mcg/min i.v. for 75 min, alone or in combination with endotoxin 10 mcg/min) | duration of NPY-induced facilitation of norepinephrine evoked changes in blood pressure ([2]; last norepinephrine dose given 50 min after stopping the NPY infusion) | effect on concomitant dopamine dose ([1]; NPY i.v. infusion 0.01 to 50 pmol/kg/min over 10 hours, each time tachycardia was observed) | arterial pressure of the patient ([1]; NPY i.v. infusion, increasing doses 0.01 to 50 pmol/kg/min over 10 hours, with dopamine) | reduction of intraarterial mean blood pressure during endotoxin infusion ([3]; NPY 70 ng/min i.v. infusion, endotoxin 10 mcg/min i.v. for last 75 min, 12 rats, baseline 116±1.6 mm Hg, controls dropped 40±6.4 mm Hg, 2 of 9 died) | effect of NPY infusion alone on blood pressure ([3]; another group of rats, NPY 70 ng/min i.v., no endotoxin)
1 | NCCc1ccc(O)c(O)c1 [dopamine, reference compound] | continued to fall |  |  |  |  |  |  |  |  | 
2 | neuropeptide Y [NPY] |  | significantly enhanced | no longer any significant difference | significantly greater than in those animals receiving endotoxin alone | no significant effect on blood pressure or heart rate | long-lasting | allowed a decrease in the dose of dopamine | normalization of arterial pressure | 8±2.1 mm Hg | no significant effect on blood pressure
